We go through 62 molecules from patent US20260234150A1, “COMPOUND FOR INHIBITING NLRP3, PREPARATION METHOD, AND USE” (DOVETREE MEDICINES UNUS, INC., priority 2023, published 2026).

pIC50: −log10 of the molar value. Where only a bound is given, the exact number is not on record here.

In the assay the target is T1, His6-Flag-TEV-NLRP3 (134-1036) (Homo sapiens, UniProt Q96P20).
T1 construct: fused on or other part: N-terminal His6 tag, Flag tag and TEV cleavage site
The experiment in a line: NLRP3 fluorescence polarization (FP) binding assay, competition with probe NP3-301. Conditions: competition with NP3-301 for binding to NLRP3 (134-1036), 30 nM protein. As to the method:
This experiment uses fluorescence polarization technology to detect and evaluate the binding assay.
The fluorescent probe used in this assay is the compound NP3-301 in the Journal of Molecular Biology (2021) 433, 167309, which was synthesized with reference to this literature.
His6-Flag-TEV-NLRP3 (134-1036) protein (SEQ NO. 1) was purchased from Kaihuiruizhi Biotech (Shanghai) Co., Ltd. (ChemPartner), and was customed for expression.
Prepare 1× assay buffer: 50 mM Hepes, pH 7.4, 150 mM NaCl, 2.5 mM MgCl2, 0.005% Tween-20, 1 mM TCEP, 100 μM ATP.
First, 2.5 μL of 4× compound solution was added to a black shallow 384-well plate (Greiner, 784076), the shallow well plate was sealed, and centrifuged at 1000 rpm for 1 min; then 2× NLPR3 protein solution (final concentration of 30 nM) was added, the shallow well plate was sealed, centrifuged at 1000 rpm for 1 min, and incubated at room temperature for 60 min. Finally, 2.5 μL of 4× NP3-301 (final concentration of 0.5 nM) was added, the shallow well plate was sealed, centrifuged at 1000 rpm for 1 min, and incubated at room temperature for 30 min. Envision was used to read the fluorescence polarization values of λex=485+20 nm and kem=535+25 nm. GraphPad Prism 9.5.0 was used to analyze the data, and the IC50 value of the competition between the compound and NP3-301 for binding to His6-Flag-TEV-NLRP3 (134-1036) was fitted by four-parameter logistic. The compounds of the present disclosure have good NLRP3 binding activity, and the test results of some representative compounds are shown in Table 1.
On the technique in general: Fluorescence polarisation rises when a labelled molecule tumbles more slowly, as on binding a larger partner.

T1 sequence (Q96P20 134-1036 limits assumed): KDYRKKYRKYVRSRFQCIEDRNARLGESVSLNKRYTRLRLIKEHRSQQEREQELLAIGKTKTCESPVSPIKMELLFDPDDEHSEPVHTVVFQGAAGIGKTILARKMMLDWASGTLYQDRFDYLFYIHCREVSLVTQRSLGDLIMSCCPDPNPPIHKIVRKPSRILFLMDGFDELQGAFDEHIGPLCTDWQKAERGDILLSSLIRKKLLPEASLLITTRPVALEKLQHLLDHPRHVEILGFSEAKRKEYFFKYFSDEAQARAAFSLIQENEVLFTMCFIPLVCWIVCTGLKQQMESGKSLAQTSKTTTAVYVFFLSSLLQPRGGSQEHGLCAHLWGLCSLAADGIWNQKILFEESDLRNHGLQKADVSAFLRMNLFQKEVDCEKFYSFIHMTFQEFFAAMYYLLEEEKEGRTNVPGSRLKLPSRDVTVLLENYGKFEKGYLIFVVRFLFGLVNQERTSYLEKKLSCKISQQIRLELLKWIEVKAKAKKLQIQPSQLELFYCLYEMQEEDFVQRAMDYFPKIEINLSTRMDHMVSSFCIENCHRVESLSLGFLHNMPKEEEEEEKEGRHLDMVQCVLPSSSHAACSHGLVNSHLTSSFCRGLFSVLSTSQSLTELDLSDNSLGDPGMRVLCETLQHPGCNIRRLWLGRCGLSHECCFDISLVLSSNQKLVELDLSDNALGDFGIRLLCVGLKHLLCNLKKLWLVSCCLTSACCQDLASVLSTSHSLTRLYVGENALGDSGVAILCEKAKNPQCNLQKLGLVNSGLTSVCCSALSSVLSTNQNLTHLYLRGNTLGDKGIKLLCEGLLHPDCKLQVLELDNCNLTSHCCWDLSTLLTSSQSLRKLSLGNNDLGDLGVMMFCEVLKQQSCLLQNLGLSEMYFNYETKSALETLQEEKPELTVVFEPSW

Broadly, the pIC50 is the IC50 on a negative log10 scale, so that one unit is a factor of ten. Higher therefore signals a small IC50. `Cc1cc(-c2ccc(C(F)(F)F)cc2O)nc2nc(N3CCOCC3)nn12` [Compound 458] had a pIC50 not below 7.00.
For the molecule `Cc1cc(C(F)(F)F)cc(O)c1-c1ccc2[nH]c(CC(=O)O)nc2n1` [Compound 4], the pIC50 was 6.00 to 6.30.
As to `Cc1cc(C(F)(F)F)cc(O)c1-c1cc2ccn(C3CCS(=O)(=O)C3)c2nn1` (centres unmarked) [Compound 123], the pIC50 was 6.00 to 6.30.
Take `Cc1cc(C(F)(F)F)cc(O)c1-c1ccc2oc(N[C@@H]3CCCN(S(=O)(=O)C4CC4)C3)nc2n1` [Compound 406]: the pIC50 is not below 7.00.
Consider `CC(=O)N1CCOC[C@H]1CNc1nc2nc(-c3c(C)cc(C(F)(F)F)cc3O)cc(C)n2n1` [Compound 457], for which the pIC50 is 6.30 to 7.00.
`Cc1cc(C(F)(F)F)cc(O)c1-c1ccc2oc(C3CCCNC3)nc2n1` (centres unmarked) [Compound 382]: the pIC50 was 6.30 to 7.00.
Then `Cc1cc(C(F)(F)F)cc(O)c1-c1ccc2oc(N3CCN(C)C3=O)nc2n1` [Compound 396], with not below 7.00; and `CC(=O)N1CCOC[C@H]1CNc1nc2nc(-c3c(C)cc(C)cc3O)ccc2o1` [Compound 254], with 6.30 to 7.00; and `COc1cc(C)c(-c2ccc3oc(NC[C@@H]4COCCN4C(C)=O)nc3n2)c(O)c1` [Compound 255], with 6.00 to 6.30.
On to `CC(=O)N1CCC[C@@H](Nc2nc3nc(-c4c(C)cc(C(F)(F)F)cc4O)ccc3o2)C1` [Compound 407], for which the pIC50 is not below 7.00.
Consider `Cc1cc(C(F)(F)F)cc(O)c1-c1ccc2oc(NC3CCN(S(C)(=O)=O)CC3)nc2n1` [Compound 411], for which the pIC50 was 6.30 to 7.00.
`Cc1cc(C(F)(F)F)cc(O)c1-c1ccc2oc(N[C@@H]3COCC[C@H]3O)nc2n1` [Compound 81] gave a pIC50 of 6.30 to 7.00.
Consider `CC(=O)N1CC2(CCN(c3nc4nc(-c5c(C)cc(C(F)(F)F)cc5O)ccc4o3)CC2)C1` [Compound 359], for which the pIC50 was not below 7.00.
`Cc1cc(C(F)(F)F)cc(O)c1-c1ccc2nc(N[C@@H]3CCCN(CCO)C3)nn2n1` [Compound 454]: the pIC50 is not below 7.00.
Then `CC(=O)N1CCOC[C@H]1CNc1nc2nc(-c3c(C)cc(Cl)cc3O)cc(C)c2o1` [Compound 452], with not below 7.00; and `Cc1cc(C(F)(F)F)cc(O)c1-c1ccc2oc(N[C@@H]3CCCN(C4COC4)C3)nc2n1` [Compound 401], with not below 7.00.
As to `CCN1CCC[C@@H](Nc2nc3ccc(-c4c(C)cc(F)cc4O)nn3n2)C1` [Compound 449], the pIC50 was not below 7.00.
For `CCN1CCC[C@H](n2ccc3cc(-c4c(C)cc(C(F)(F)F)cc4O)nnc32)C1` [Compound 11-b], the pIC50 was 6.30 to 7.00.
Turning to `CC(=O)N1CCOC2(CCN(c3nc4nc(-c5c(C)cc(C(F)(F)F)cc5O)ccc4o3)CC2)C1` [Compound 369], the pIC50 is 6.30 to 7.00.
With `CC(=O)N1C[C@@H]2CN(c3nc4nc(-c5c(C)cc(C(F)(F)F)cc5O)ccc4o3)C[C@@H]2C1` [Compound 360], the pIC50 was not below 7.00.
Then `Cc1cc(C(F)(F)F)c(Cl)c(O)c1-c1ccn2nc(N3CCOCC3)nc2n1` [Compound 459], with less than 6.00.
The same measure for `Cc1cc(C(F)(F)F)cc(O)c1-c1ccc2oc(N[C@@H]3CCCN(C(=O)C4CC4)C3)nc2n1` [Compound 405]: not below 7.00; for `Cc1cc(C(F)(F)F)cc(O)c1-c1ccc2oc(N3CCS(=O)(=O)c4ccccc43)nc2n1` [Compound 386]: not below 7.00; for `Cc1cc(C(F)(F)F)cc(O)c1-c1ccc2oc(N3CCC4(CCCCO4)CC3)nc2n1` [Compound 368]: not below 7.00.
`CC(=O)N1CCC2(CCN(c3nc4nc(-c5c(C)cc(C(F)(F)F)cc5O)ccc4o3)C2)C1` (centres unmarked) [Compound 364] had a pIC50 not below 7.00.
`CCN1CC2(CCN(c3nc4nc(-c5c(C)cc(C(F)(F)F)cc5O)ccc4o3)CC2)C1` [Compound 358] gave a pIC50 of 6.30 to 7.00.
Then `Cc1cc(C(F)(F)F)cc(O)c1-c1ccc2oc(N3CCOC[C@@H]3C)nc2n1` [Compound 373], with 6.30 to 7.00.
Then `CC(=O)N1CCC2(CC1)CCN(c1nc3nc(-c4c(C)cc(C(F)(F)F)cc4O)ccc3o1)CC2` [Compound 366], with 6.30 to 7.00.
As for `Cc1cc(C(F)(F)F)cc(O)c1-c1cc2ccn(C3CCS(=O)(=O)CC3)c2nn1` [Compound 124], the pIC50 is 6.30 to 7.00.
`Cc1cc(C(F)(F)F)cc(O)c1-c1ccc2ccc(N)nc2n1` [Compound 7] showed a pIC50 of 6.30 to 7.00.
Regarding `CC(=O)N1CCC(Nc2nc3nc(-c4c(C)cc(C(F)(F)F)cc4O)ccc3o2)CC1` [Compound 412], the pIC50 is 6.30 to 7.00.
Molecule `[2H]C([2H])([2H])C(=O)N1CCOC[C@H]1CNc1nc2nc(-c3c(C)cc(C(F)(F)F)cc3O)ccc2o1` [Compound 450] had a pIC50 not below 7.00.
As for `CC(=O)N1C[C@@H](O)[C@H](Nc2nc3nc(-c4c(C)cc(C(F)(F)F)cc4O)ccc3o2)C1` [Compound 272], the pIC50 is not below 7.00.
For the molecule `CC(=O)N1CCOC[C@H]1CNc1nc2ccc(-c3c(C)cc(C(F)(F)F)cc3O)nn2n1` [Compound 419], the pIC50 is 6.30 to 7.00.
Then `Cc1cc(C(F)(F)F)cc(O)c1-c1ccc2oc(N3C[C@H]4C[C@@H]3CO4)nc2n1` [Compound 379], with 6.30 to 7.00; and `Cc1cc(C(F)(F)F)cc(O)c1-c1ccc2cc(N3CCOC[C@H]3C)nn2n1` [Compound 438], with not below 7.00; and `CC(=O)N1CCOC[C@H]1CNc1nc2c(C)cc(-c3c(C)cc(C(F)(F)F)cc3O)nn2n1` [Compound 425], with 6.30 to 7.00.
Molecule `Cc1cc(C)c(-c2ccc3oc(N4CCS(=O)(=O)CC4)nc3n2)c(O)c1` [Compound 385] gave a pIC50 of 6.30 to 7.00.
The molecule `Cc1cc(C)c(-c2ccc3oc(N4CCOCC4)nc3n2)c(O)c1` [Compound 375] gave a pIC50 not below 7.00.
The molecule `Cc1cc(C(F)(F)F)cc(O)c1-c1ccc2oc(N[C@@H]3CCCN(S(C)(=O)=O)C3)nc2n1` [Compound 408] gave a pIC50 not below 7.00.
Molecule `CCS(=O)(=O)N1CCN(c2nc3nc(-c4c(C)cc(C)cc4O)ccc3o2)CC1` [Compound 391] gave a pIC50 not below 7.00.
Consider `Cc1cc(C(F)(F)F)cc(O)c1-c1ccc2oc(N3CCC4(CCOC4)C3)nc2n1` (centres unmarked) [Compound 361], for which the pIC50 was 6.30 to 7.00.
The molecule `Cc1cc(C(F)(F)F)cc(O)c1-c1ccc2oc(N3CCO[C@H](C)C3)nc2n1` [Compound 374] showed a pIC50 not below 7.00.
As for `Cc1cc(C(F)(F)F)cc(O)c1-c1ccn2nc(N[C@@H]3CCCN(CCO)C3)nc2n1` [Compound 455], the pIC50 is not below 7.00.
Consider `Cc1cc(C(F)(F)F)cc(O)c1-c1ccc2oc(N3CCO[C@@H](C)C3)nc2n1` [Compound 372], for which the pIC50 was not below 7.00.
Turning to `CCS(=O)(=O)N1CCN(c2nc3nc(-c4c(C)cc(C(F)(F)F)cc4O)ccc3o2)[C@@H](C)C1` [Compound 393], the pIC50 is 6.30 to 7.00.
In the case of `Cc1cc(C(F)(F)F)cc(O)c1-c1ccc2oc(NC[C@@H]3COCCN3S(C)(=O)=O)nc2n1` [Compound 258], the pIC50 was not below 7.00.
Turning to `Cc1cc(C(F)(F)F)cc(O)c1-c1ccc2oc(N3CCC4(CC3)COC4)nc2n1` [Compound 362], the pIC50 is not below 7.00.
In turn, `Cc1cc(C(F)(F)F)cc(O)c1-c1cc2ccn(Cc3cc(C#N)ccn3)c2nn1` [Compound 121] gave a pIC50 of less than 6.00.
With `CC(=O)N1CCOC[C@H]1CNc1nc2nc(-c3c(C)cc(C(F)(F)F)cc3O)ccn2n1` [Compound 453], the pIC50 is 6.00 to 6.30.
For `Cc1cc(C(F)(F)F)cc(O)c1-c1ccc2oc(NC3CC3)nc2n1` [Compound 82], the pIC50 is not below 7.00.
Then `Cc1cc(C(F)(F)F)cc(O)c1-c1ccc2oc(N3CC4(COC4)C3)nc2n1` [Compound 357], with 6.30 to 7.00; and `CC(=O)N1CC[C@H](Nc2nc3nc(-c4c(C)cc(C(F)(F)F)cc4O)ccc3o2)C1` [Compound 273], with 6.30 to 7.00.
`CCN1CCC2(CC1)CCN(c1nc3nc(-c4c(C)cc(C(F)(F)F)cc4O)ccc3o1)CC2` [Compound 367] had a pIC50 of 6.30 to 7.00.
The molecule `Cc1cc(C(F)(F)F)cc(O)c1-c1ccc2oc(N[C@@H]3CCCN(CC(C)(C)O)C3)nc2n1` [Compound 403] had a pIC50 not below 7.00.
The molecule `Cc1cc(C(F)(F)F)cc(O)c1-c1ccc2oc(N3C[C@@H]4C[C@H]3CO4)nc2n1` [Compound 380] had a pIC50 of 6.30 to 7.00.
The molecule `CC(=O)N1CCN(c2nc3nc(-c4c(C)cc(C(F)(F)F)cc4O)ccc3o2)CC1` [Compound 389] showed a pIC50 not below 7.00.
Then `CCS(=O)(=O)N1CCOC[C@H]1CNc1nc2nc(-c3c(C)cc(C(F)(F)F)cc3O)ccc2o1` [Compound 259], with not below 7.00; and `Cc1cc(C(F)(F)F)cc(O)c1-c1ccc2oc(N3CCC4(CCO4)CC3)nc2n1` [Compound 363], with not below 7.00.
In turn, `Cc1cc(C(F)(F)F)cc(O)c1-c1ccc2nc(N)nn2n1` [Compound 13] gave a pIC50 of 6.00 to 6.30.
`CC(=O)N1CCC2(CC1)CN(c1nc3nc(-c4c(C)cc(C(F)(F)F)cc4O)ccc3o1)CCO2` [Compound 365] gave a pIC50 of 6.30 to 7.00.
`CC(=O)N1CCCC2(CCN(c3nc4nc(-c5c(C)cc(C(F)(F)F)cc5O)ccc4o3)CC2)C1` [Compound 370]: the negative logarithm of the IC50 (pIC50) is 6.00 to 6.30.
